Experimental data: publication PMC8588310, “Identification and Preliminary Structure-Activity Relationship Studies of 1,5-Dihydrobenzo[e][1,4]oxazepin-2(3H)-ones That Induce Differentiation of Acute Myeloid Leukemia Cells In Vitro” (Molecules, 2021)
≈ marks a conversion by molar mass, not a printed value.

Assays:
HL-60 cells = experiment: CD11b expression assay by flow cytometry in HL-60 cells; format: cell-based, human; conditions: for EC50: Homo sapiens, HL-60, 96 h, 4-day (96 h) treatment, CD11b upregulation, read-out: EC50 [nM], %CD11b response in HL60 cells; for LipE (lipophilic efficiency): LipE = -LogEC50-cLogP, EC50 of CD11b assay in HL-60; for Activity in the CD11b assay: concentration-response
Protocol: (§1) Cells were treated with 1000 structurally diverse small molecules selected from a commercial library. A single point testing concentration of 10 µM was used. After 4 days, cells were stained with a CD11b antibody and analysed using flow cytometry. Compounds upregulating CD11b expression greater than 10% in at least three of the cell lines were considered as potential hits. Hit confirmation was undertaken as follows: first, the hit was re-tested at 10 µM both with the CD11b antibody and an isotype control to account for nonspecific binding. Secondly, the effect of the hit on cell proliferation and viability was evaluated through staining with DAPI to evaluate the number of dead cells, and with acridine orange to detect total cell numbers. Thirdly, the induction of differentiation caused by the compounds was confirmed through morphology assessment with Giemsa staining. Finally, the molecule was resynthesised and fully characterised to confirm structural authenticity. This fresh sample was then retested in the CD11b assay to generate a concentration-response curve. The study of proliferation and morphology was performed on a panel of six cell lines: HL-60, THP-1, OCI-AML3, KG-1, Kasumi-1 and ME-1.
Thus, structure-activity relationship studies were initiated, where the potency of the new analogues was evaluated through concentration-response testing using the CD11b assay in HL-60 cells. Lipophilic efficiency (LipE), which also accounts for lipophilicity, was also used to compare the quality of the analogues. Even though multiple parameters can influence activity in a cell-based assay, LipE is a useful guide to compare analogues.
PE mouse-anti-human-CD11b/Mac-1 (ICRF44, Cat 555388) and PE-mouse-IgG1-κ-isotype control (MOPC-21, Cat 555749) were purchased from BD Bioscience. Cells were suspended in 100 μL growth media (RPMI + 10% FBS + 1% L-glutamine) at a density of 2 × 10^4 cells/well of a V-bottom 96 well plate (Corning, Cat 3894) and grown for 96 h in the presence of compound at the required concentration. After 96 h, the plate was centrifuged, media was removed, and cells were resuspended in 50 µL of blocking buffer (IMDM, no phenol red + 10% FBS) containing 2.5 μL of either CD11b or isotype control antibody and incubated on ice in the dark for 20 min. Cells were washed twice in 200 μL of staining buffer (IMDM, no phenol red + 1% FBS) before being resuspended in 200 μL of staining buffer containing 1 μg/mL of DAPI to help identify dead cells. Flow cytometry data were collected on an Attune NxT and analysed using the Attune NxT software (Life Technologies).

[1] = Metabolic stability in mouse S9 fraction; format: in vitro ADME; conditions: ER = Clint/species flow rate (mice: 90 mL/min/kg)
Protocol: (§2) Determination of semi-thermodynamic solubility, metabolic stability in S9 fraction, Caco-2 permeability and PPB were performed by Cyprotex Ltd. (www.cyprotex.com, accessed on 22 October 2021) using their standard assays and as described on their website.
[22] Extraction ratio (ER) is calculated as the measured intrinsic clearance over the hepatic blood flow of each species (90 mL/min/kg for mice). It has the advantage over other parameters (half-life, clearance) that it is independent of the species used

[2] = Semi-thermodynamic aqueous solubility; format: physicochemical; conditions: thermodynamic from solid
Protocol: as §2

[3] = Single dose PK study in male CD-1 mice; format: in vivo, mouse; conditions: for bioavailability / half-life / Cmax / Tmax / Vd/F: mouse, whole blood; for bioavailability: 3 mg/kg po vs 0.33 mg/kg iv; for half-life: single dose 3 mg/kg po and 0.33 mg/kg iv, route of parameter not given; for half-life / Cmax / Tmax / Vd/F / Clobs / Clobs/F: blood; for Cmax / Tmax / Vd/F / Clobs/F: single dose 3 mg/kg po; for Vd/F: read-out: Vz/F; for Clobs: single dose 0.33 mg/kg iv
Excerpt: In order to undertake a preliminary assessment of the pharmacokinetic (PK) profile of this compound class, three compounds were deemed to have sufficient intrinsic potency, solubility and in vitro metabolic stability properties to progress into a single dose in vivo PK study. […] […] […] Nonetheless, the clearance of the three compounds was high to moderate, and at this dose the in vitro EC50 was not reached.
Male CD-1 mice were used for the PK studies, with three for each treatment. […] Blood concentration was measured by LC-MS/MS over 24 h.

porcine neuronal tubulin = molecular target: T1, porcine neuronal tubulin (Sus scrofa, UniProt P02550+P02554); experiment: Microtubule (tubulin) polymerisation cell-free assay; format: biochemical
T1 construct: performed using porcine neuronal tubulin (Cytoskeleton, Inc, Denver, CO, USA, BK006P); purchased Cytoskeleton, Inc BK006P; host or cells: porcine brain (neuronal) tissue
T1 sequence (P02550 whole entry): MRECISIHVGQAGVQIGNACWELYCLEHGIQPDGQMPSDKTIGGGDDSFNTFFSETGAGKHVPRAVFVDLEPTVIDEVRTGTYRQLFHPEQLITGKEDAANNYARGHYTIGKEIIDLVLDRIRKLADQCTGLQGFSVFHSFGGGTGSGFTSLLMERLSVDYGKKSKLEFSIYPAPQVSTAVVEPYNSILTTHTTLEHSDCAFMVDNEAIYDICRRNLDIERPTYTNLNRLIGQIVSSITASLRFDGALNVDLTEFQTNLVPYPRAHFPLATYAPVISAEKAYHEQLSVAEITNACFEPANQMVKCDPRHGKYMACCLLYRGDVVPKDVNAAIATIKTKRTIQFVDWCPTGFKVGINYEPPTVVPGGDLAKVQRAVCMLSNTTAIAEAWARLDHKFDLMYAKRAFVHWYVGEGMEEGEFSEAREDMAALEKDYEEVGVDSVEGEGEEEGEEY
T1 sequence (P02554 whole entry): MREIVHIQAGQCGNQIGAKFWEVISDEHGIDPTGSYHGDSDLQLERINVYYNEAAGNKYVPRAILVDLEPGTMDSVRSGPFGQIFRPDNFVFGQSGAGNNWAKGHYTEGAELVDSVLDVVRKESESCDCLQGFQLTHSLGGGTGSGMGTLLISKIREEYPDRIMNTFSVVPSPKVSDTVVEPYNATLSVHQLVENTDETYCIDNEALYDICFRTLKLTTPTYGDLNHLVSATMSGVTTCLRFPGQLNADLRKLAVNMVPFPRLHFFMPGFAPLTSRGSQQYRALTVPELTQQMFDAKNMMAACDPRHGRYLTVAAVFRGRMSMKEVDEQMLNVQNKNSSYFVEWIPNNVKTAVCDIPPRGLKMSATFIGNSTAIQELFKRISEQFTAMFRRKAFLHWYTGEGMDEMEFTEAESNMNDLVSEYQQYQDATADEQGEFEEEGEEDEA
Protocol: The microtubule polymerisation assay was performed using porcine neuronal tubulin (Cytoskeleton, Inc, Denver, CO, USA, BK006P) as an adaptation of the original method of Shelanski et al. and Lee et al. at Cytoskeleton, Inc.

[4] = tested on: HL-60, THP-1, OCI-AML3, KG-1, Kasumi-1 and ME-1; experiment: Morphology assessment of stained cytospins; format: cell-based, human; conditions: 10 µM, 4-day treatment, six cell lines
Protocol: as §1
Cells were prepared in staining buffer (IMDM, no phenol red + 2% FBS) at a concentration of approximately 1 × 10^5 cells/mL. […]

[5] = tested on: HL-60, THP-1, OCI-AML3, KG-1, Kasumi-1 and ME-1; experiment: Cell counts and viability (acridine orange / DAPI); format: cell-based, human; conditions: 10 µM, 4 days
Protocol: as §1, with “The study of proliferation and morphology was performed on a panel of six cell lines: HL-60, THP-1, OCI-AML3, KG-1, Kasumi-1 and ME-1.” left out
Solution 13 containing acridin orange and DAPI was purchased from ChemoMetec (Cat 910-3013). After the appropriate cell treatment, one volume of solution 13 was added into 19 volumes of the premixed cell suspension and analysed using the NucleoCounter® NC-300^TM (ChemoMetec).

THP-1 cells = experiment: CD11b expression assay by flow cytometry in THP-1 cells; format: cell-based; conditions: Homo sapiens, 96 h, 4-day treatment, resynthesised sample
Protocol: as §1, with “The study of proliferation and morphology was performed on a panel of six cell lines: HL-60, THP-1, OCI-AML3, KG-1, Kasumi-1 and ME-1.” left out
(§3) PE mouse-anti-human-CD11b/Mac-1 (ICRF44, Cat 555388) and PE-mouse-IgG1-κ-isotype control (MOPC-21, Cat 555749) were purchased from BD Bioscience. […] Flow cytometry data were collected on an Attune NxT and analysed using the Attune NxT software (Life Technologies).

OCI-AML3 cells = experiment: CD11b expression assay by flow cytometry in OCI-AML3 cells; format: cell-based; conditions: Homo sapiens, OCI-AML-3, 96 h, 4-day treatment, resynthesised sample
Protocol: as §1, with “The study of proliferation and morphology was performed on a panel of six cell lines: HL-60, THP-1, OCI-AML3, KG-1, Kasumi-1 and ME-1.” left out
as §3

FLT3 = molecular target: T2, FLT3 (Homo sapiens, UniProt P36888); experiment: Test against FLT3; format: biochemical; conditions: testing concentrations from 1 to 10 μM
T2 sequence (P36888 27-993): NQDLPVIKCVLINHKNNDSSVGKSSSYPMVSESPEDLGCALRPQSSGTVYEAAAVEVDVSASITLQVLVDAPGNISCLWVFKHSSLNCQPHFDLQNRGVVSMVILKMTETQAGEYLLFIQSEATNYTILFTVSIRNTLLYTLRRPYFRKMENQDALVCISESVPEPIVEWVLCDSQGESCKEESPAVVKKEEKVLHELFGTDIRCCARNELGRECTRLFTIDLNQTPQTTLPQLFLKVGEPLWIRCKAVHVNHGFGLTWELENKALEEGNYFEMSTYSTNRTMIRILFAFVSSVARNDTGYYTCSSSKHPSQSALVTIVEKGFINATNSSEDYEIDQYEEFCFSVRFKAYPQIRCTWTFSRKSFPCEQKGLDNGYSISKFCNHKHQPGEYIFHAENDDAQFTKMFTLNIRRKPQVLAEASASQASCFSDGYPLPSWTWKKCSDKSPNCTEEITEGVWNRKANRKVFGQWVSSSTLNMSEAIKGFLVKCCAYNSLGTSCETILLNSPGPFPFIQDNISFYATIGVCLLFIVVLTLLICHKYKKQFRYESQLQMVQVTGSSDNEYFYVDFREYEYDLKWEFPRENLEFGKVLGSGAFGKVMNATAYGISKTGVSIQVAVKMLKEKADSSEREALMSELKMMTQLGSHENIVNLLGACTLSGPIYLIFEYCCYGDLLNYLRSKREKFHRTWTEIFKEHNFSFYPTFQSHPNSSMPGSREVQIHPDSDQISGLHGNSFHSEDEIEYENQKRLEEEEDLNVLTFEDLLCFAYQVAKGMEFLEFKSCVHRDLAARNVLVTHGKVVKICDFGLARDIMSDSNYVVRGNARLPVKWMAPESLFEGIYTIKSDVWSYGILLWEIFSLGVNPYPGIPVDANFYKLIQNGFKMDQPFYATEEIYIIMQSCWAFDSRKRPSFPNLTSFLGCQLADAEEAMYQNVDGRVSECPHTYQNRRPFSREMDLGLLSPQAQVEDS

DHODH = DHODH (Homo sapiens, UniProt Q02127); experiment: Test against DHODH; format: biochemical; conditions: testing concentrations from 1 to 10 μM
Chain of DHODH (Q02127 whole entry, species assumed): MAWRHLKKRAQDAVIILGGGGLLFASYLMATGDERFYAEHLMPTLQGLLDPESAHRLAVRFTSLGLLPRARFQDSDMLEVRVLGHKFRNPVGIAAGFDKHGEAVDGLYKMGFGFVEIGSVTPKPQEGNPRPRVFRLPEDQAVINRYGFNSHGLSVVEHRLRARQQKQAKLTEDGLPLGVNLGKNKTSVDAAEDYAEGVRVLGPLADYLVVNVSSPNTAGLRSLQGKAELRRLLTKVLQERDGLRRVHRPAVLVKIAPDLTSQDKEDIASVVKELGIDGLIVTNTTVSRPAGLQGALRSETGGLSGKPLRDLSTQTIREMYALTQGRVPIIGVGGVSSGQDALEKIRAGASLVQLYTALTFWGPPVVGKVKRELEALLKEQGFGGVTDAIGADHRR

Caco-2 permeability = format: in vitro ADME; conditions: human
Protocol: as §2

panel of kinases = experiment: Test against a panel of kinases; format: biochemical; conditions: testing concentrations from 1 to 10 μM
Plasma protein binding = format: in vitro ADME; conditions: % unbound, read-out: PPB, unbound
Protocol: as §2

[6] = aqueous (buffer or water not specified)
[7] = aqueous medium (buffer not specified)

Structure (SMILES): CS(=O)(=O)Nc1cccc(-c2ccc3c(c2)N(CC(F)(F)F)C(=O)COC3)c1 [Compound 11, N-(3-(2-Oxo-1-(2,2,2-trifluoroethyl)-1,2,3,5-tetrahydrobenzo[e][1,4]oxazepin-8-yl)phenyl)methanesulfonamide]
- EC50 (HL-60 cells; HL-60 cells): 1900 nM
- LipE (lipophilic efficiency) (HL-60 cells): 3.8
- ER in mS9 (extraction ratio) [1]: 0.05
- solubility thermodynamic [2, 6]: 33 µM (≈ 13.7 µg/mL)
- bioavailability [3]: 38%
- half-life [3]: 5.8 h
- Cmax [3]: 160 ng/mL
- Tmax [3]: 0.33 h
- Vd/F [3]: 73 L/kg
- Clobs [3]: 61 mL/min/kg
- Clobs/F [3]: 159 mL/min/kg

Structure (SMILES): CC(C)N1C(=O)COCc2ccc(-c3ccccc3NS(C)(=O)=O)cc21 [Compound 25, N-(2-(1-Isopropyl-2-oxo-1,2,3,5-tetrahydrobenzo[e][1,4]oxazepin-8-yl)phenyl)methanesulfonamide]
- Effect on polymerisation of tubulin (porcine neuronal tubulin; testing concentrations of up to 100 μM): did not have an effect
- Activity in the CD11b assay (HL-60 cells; HL-60 cells): inactive
- EC50 (HL-60 cells; HL-60 cells): > 30000 nM

Structure (SMILES): CS(=O)(=O)Nc1cccc(-c2ccc3c(c2)N(CC2CC2)C(=O)OC3)c1 [Compound 41, N-(3-(1-(Cyclopropylmethyl)-2-oxo-1,4-dihydro-2H-benzo[d][1,3]oxazin-7-yl)phenyl)methanesulfonamide]
- Loss in activity compared to OXS003976 (HL-60 cells; CD11b EC50 in HL-60, vs OXS003976): 15 fold
- EC50 (HL-60 cells; HL-60 cells): 15000 nM
- LipE (lipophilic efficiency) (HL-60 cells): 2.5
- ER in mS9 (extraction ratio) [1]: 0.54
- solubility thermodynamic [2, 7]: 77 µM (≈ 28.7 µg/mL)

Structure (SMILES): CC(C)N1C(=O)COCc2ncc(-c3cccc(NS(C)(=O)=O)c3)cc21 [Compound 42, N-(3-(1-Isopropyl-2-oxo-1,2,3,5-tetrahydropyrido[3,2-e][1,4]oxazepin-8-yl)phenyl)methanesulfonamide]
- Activity in the CD11b assay (HL-60 cells; HL-60 cells): retained weak activity
- EC50 (HL-60 cells; HL-60 cells): 2200 nM
- LipE (lipophilic efficiency) (HL-60 cells): 4.9
- ER in mS9 (extraction ratio) [1]: 0.09
- solubility thermodynamic [2, 7]: > 200 µM

Structure (SMILES): CS(=O)(=O)Nc1cccc(-c2ccc3c(c2)N(CC2CC2)C(=O)COC3)c1 [OXS003976, N-(3-(1-(Cyclopropylmethyl)-2-oxo-1,2,3,5-tetrahydrobenzo[e][1,4]oxazepin-8-yl)phenyl)methanesulfonamide]
- Cell morphology [4]: induced morphological changes consistent with differentiation
- CD11b expression vs isotype control (HL-60 cells; 10 µM, 4-day treatment, HL-60 cells): upregulated CD11b expression, but not the isotype control
- EC50 (HL-60 cells; HL-60 cells): 770 nM
- LipE (lipophilic efficiency) (HL-60 cells): 4.3
- Cell proliferation and viability [5]: decreased cell proliferation and viability
- EC50 (THP-1 cells): 3.4 µM
- ER in mS9 (extraction ratio) [1]: 0.54
- solubility thermodynamic [2, 6]: > 200 µM
- EC50 (OCI-AML3 cells): 0.95 µM

Structure (SMILES): CC(C)N1C(=O)COCc2ccc(-c3cccc(NS(C)(=O)=O)c3)cc21 [OXS007002, N-(3-(1-Isopropyl-2-oxo-1,2,3,5-tetrahydrobenzo[e][1,4]oxazepin-8-yl)phenyl)methanesulfonamide]
- IC50 (porcine neuronal tubulin; read-out: IC50, inhibition of tubulin polymerisation): 3.6 µM
- Activity against FLT3 (FLT3): inactive
- EC50 (HL-60 cells; HL-60 cells): 620 nM
- LipE (lipophilic efficiency) (HL-60 cells): 4.5
- Activity against DHODH (DHODH): inactive
- efflux ratio (Caco-2 permeability; Caco-2, read-out: EfR, efflux ratio (Caco-2)): 1.3
- Papp (Caco-2 permeability; Caco-2 cell permeability): 31 ×10⁻⁶ cm/s
- Activity against a panel of kinases (panel of kinases): inactive
- fraction unbound (Plasma protein binding): 0.11
- ER in mS9 (extraction ratio) [1]: 0.33
- solubility thermodynamic [2, 6]: > 200 µM
- bioavailability [3]: 28%
- half-life [3]: 4.9 h
- Cmax [3]: 104 ng/mL
- Tmax [3]: 0.42 h
- Vd/F [3]: 101 L/kg
- Clobs [3]: 73 mL/min/kg
- Clobs/F [3]: 258 mL/min/kg
